{"source": "ChEMBL document CHEMBL1201862", "about": "“PubChem BioAssay data set” (2004)", "assay_in_all_cases": "inhibition of tumour cell growth, NCI panel, 48 h", "key": {"786-0": {"test_system": "786-0"}, "ACHN": {"test_system": "ACHN"}, "CCRF-CEM": {"test_system": "CCRF-CEM"}, "COLO 205": {"test_system": "COLO 205"}, "DU-145": {"test_system": "DU-145"}, "HCT-15": {"test_system": "HCT-15"}, "LOX IMVI": {"test_system": "LOX IMVI"}, "M14": {"test_system": "M14"}, "MDA-MB-231": {"test_system": "MDA-MB-231"}, "MDA-MB-435": {"test_system": "MDA-MB-435"}, "MDA-N": {"test_system": "MDA-N"}, "Malme-3M": {"test_system": "Malme-3M"}, "OVCAR-4": {"test_system": "OVCAR-4"}, "OVCAR-8": {"test_system": "OVCAR-8"}, "RPMI-8226": {"test_system": "RPMI-8226"}, "SNB-19": {"test_system": "SNB-19"}, "U-251": {"test_system": "U-251"}, "SN12C": {"test_system": "SN12C"}}, "note": "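Compound exposure: 48 hours, 5 concentrations, 96-well plates. At the GI50, growth is halved.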 Calls of active or inactive are those of the source. Cut-off read from the data, not from the text of the source: active = GI50 up to about 1.1 µM and inactive = higher.", "data": [{"smiles": "CC12CC(c3ccccc3O1)C(C(=O)Nc1nccs1)C(=O)N2", "note": "(stereo unspecified)", "values": [{"measurement": "GI50", "setting": "786-0", "result": "> 100 µM (inactive)"}, {"measurement": "GI50", "setting": "ACHN", "result": "> 100 µM (inactive)"}, {"measurement": "GI50", "setting": "CCRF-CEM", "result": "> 100 µM (inactive)"}, {"measurement": "GI50", "setting": "COLO 205", "result": "> 100 µM (inactive)"}, {"measurement": "GI50", "setting": "DU-145", "result": "> 100 µM (inactive)"}, {"measurement": "GI50", "setting": "HCT-15", "result": "> 100", "unit": "µM"}, {"measurement": "GI50", "setting": "LOX IMVI", "result": "> 100 µM (inactive)"}, {"measurement": "GI50", "setting": "M14", "result": "> 100 µM (inactive)"}, {"measurement": "GI50", "setting": "MDA-MB-231", "result": "> 100 µM (inactive)"}, {"measurement": "GI50", "setting": "MDA-MB-435", "result": "> 100 µM (inactive)"}, {"measurement": "GI50", "setting": "MDA-N", "result": "> 100 µM (inactive)"}, {"measurement": "GI50", "setting": "Malme-3M", "result": "> 100 µM (inactive)"}, {"measurement": "GI50", "setting": "OVCAR-4", "result": "> 100 µM (inactive)"}, {"measurement": "GI50", "setting": "OVCAR-8", "result": "> 100 µM (inactive)"}, {"measurement": "GI50", "setting": "RPMI-8226", "result": "98.4 µM (inactive)"}, {"measurement": "GI50", "setting": "SNB-19", "result": "> 100 µM (inactive)"}, {"measurement": "GI50", "setting": "U-251", "result": "> 100 µM (inactive)"}]}, {"smiles": "O=S(=O)(c1ccc(Br)cc1)n1c2ccc(Br)cc2c2nc3ccccc3nc21", "values": [{"measurement": "GI50", "setting": "786-0", "result": "31.6 µM (inactive)"}, {"measurement": "GI50", "setting": "ACHN", "result": "39.6 µM (inactive)"}, {"measurement": "GI50", "setting": "CCRF-CEM", "result": "14.1 µM (inactive)"}, {"measurement": "GI50", "setting": "COLO 205", "result": "> 100 µM (inactive)"}, {"measurement": "GI50", "setting": "DU-145", "result": "> 100 µM (inactive)"}, {"measurement": "GI50", "setting": "HCT-15", "result": "> 100", "unit": "µM"}, {"measurement": "GI50", "setting": "LOX IMVI", "result": "> 100 µM (inactive)"}, {"measurement": "GI50", "setting": "M14", "result": "> 100 µM (inactive)"}, {"measurement": "GI50", "setting": "MDA-MB-231", "result": "50.5 µM (inactive)"}, {"measurement": "GI50", "setting": "MDA-MB-435", "result": "> 100 µM (inactive)"}, {"measurement": "GI50", "setting": "MDA-N", "result": "> 100 µM (inactive)"}, {"measurement": "GI50", "setting": "Malme-3M", "result": "> 100 µM (inactive)"}, {"measurement": "GI50", "setting": "OVCAR-4", "result": "67.9 µM (inactive)"}, {"measurement": "GI50", "setting": "OVCAR-8", "result": "55.5 µM (inactive)"}, {"measurement": "GI50", "setting": "RPMI-8226", "result": "> 100 µM (inactive)"}, {"measurement": "GI50", "setting": "SN12C", "result": "> 100 µM (inactive)"}, {"measurement": "GI50", "setting": "SNB-19", "result": "49.3 µM (inactive)"}, {"measurement": "GI50", "setting": "U-251", "result": "23.2 µM (inactive)"}]}, {"smiles": "COc1cc(/C=N/n2c(-c3ccccc3)n[nH]c2=O)cc(OC)c1OC", "values": [{"measurement": "GI50", "setting": "786-0", "result": "3.5 µM (inactive)"}, {"measurement": "GI50", "setting": "ACHN", "result": "4.02 µM (inactive)"}, {"measurement": "GI50", "setting": "CCRF-CEM", "result": "1.76 µM (inactive)"}, {"measurement": "GI50", "setting": "DU-145", "result": "5.77 µM (inactive)"}, {"measurement": "GI50", "setting": "HCT-15", "result": 0.708, "unit": "µM"}, {"measurement": "GI50", "setting": "LOX IMVI", "result": "3.22 µM (inactive)"}, {"measurement": "GI50", "setting": "M14", "result": "6.08 µM (inactive)"}, {"measurement": "GI50", "setting": "MDA-MB-231", "result": "19.2 µM (inactive)"}, {"measurement": "GI50", "setting": "MDA-MB-435", "result": "0.218 µM (active)"}, {"measurement": "GI50", "setting": "MDA-N", "result": "0.174 µM (active)"}, {"measurement": "GI50", "setting": "Malme-3M", "result": "1.46 µM (inactive)"}, {"measurement": "GI50", "setting": "OVCAR-4", "result": "> 26.9 µM (inactive)"}, {"measurement": "GI50", "setting": "OVCAR-8", "result": "4.81 µM (inactive)"}, {"measurement": "GI50", "setting": "RPMI-8226", "result": "1.38 µM (inactive)"}, {"measurement": "GI50", "setting": "SN12C", "result": "7.67 µM (inactive)"}, {"measurement": "GI50", "setting": "SNB-19", "result": "6.37 µM (inactive)"}, {"measurement": "GI50", "setting": "U-251", "result": "3.93 µM (inactive)"}]}, {"smiles": "COC(=O)/C1=C/c2c([nH]c3ccccc23)/C(C(=O)OC)=C\\c2c1[nH]c1ccccc21", "note": "[CAULERPIN]", "values": [{"measurement": "GI50", "setting": "786-0", "result": "11.2 µM (inactive)"}, {"measurement": "GI50", "setting": "ACHN", "result": "22.2 µM (inactive)"}, {"measurement": "GI50", "setting": "COLO 205", "result": "> 50 µM (inactive)"}, {"measurement": "GI50", "setting": "DU-145", "result": "42 µM (inactive)"}, {"measurement": "GI50", "setting": "HCT-15", "result": 22, "unit": "µM"}, {"measurement": "GI50", "setting": "LOX IMVI", "result": "18.7 µM (inactive)"}, {"measurement": "GI50", "setting": "M14", "result": "25.2 µM (inactive)"}, {"measurement": "GI50", "setting": "MDA-MB-231", "result": "13.7 µM (inactive)"}, {"measurement": "GI50", "setting": "MDA-MB-435", "result": "14.7 µM (inactive)"}, {"measurement": "GI50", "setting": "MDA-N", "result": "15.5 µM (inactive)"}, {"measurement": "GI50", "setting": "Malme-3M", "result": "12.9 µM (inactive)"}, {"measurement": "GI50", "setting": "OVCAR-8", "result": "26.6 µM (inactive)"}, {"measurement": "GI50", "setting": "SN12C", "result": "34.4 µM (inactive)"}, {"measurement": "GI50", "setting": "SNB-19", "result": "33.7 µM (inactive)"}, {"measurement": "GI50", "setting": "U-251", "result": "19.5 µM (inactive)"}]}, {"smiles": "C/C=C1/C[C@@H](C)[C@@](C)(O)C(=O)OCC2=CC[N+]3([O-])CC[C@@H](OC1=O)[C@@H]23", "note": "(stereo partly specified) [SENECIONINE N-OXIDE]", "values": [{"measurement": "GI50", "setting": "786-0", "result": "> 100 µM (inactive)"}, {"measurement": "GI50", "setting": "ACHN", "result": "> 100 µM (inactive)"}, {"measurement": "GI50", "setting": "CCRF-CEM", "result": "> 100 µM (inactive)"}, {"measurement": "GI50", "setting": "COLO 205", "result": "> 100 µM (inactive)"}, {"measurement": "GI50", "setting": "DU-145", "result": "> 100 µM (inactive)"}, {"measurement": "GI50", "setting": "HCT-15", "result": "> 100", "unit": "µM"}, {"measurement": "GI50", "setting": "LOX IMVI", "result": "> 100 µM (inactive)"}, {"measurement": "GI50", "setting": "M14", "result": "> 100 µM (inactive)"}, {"measurement": "GI50", "setting": "MDA-MB-231", "result": "> 100 µM (inactive)"}, {"measurement": "GI50", "setting": "MDA-MB-435", "result": "> 100 µM (inactive)"}, {"measurement": "GI50", "setting": "MDA-N", "result": "> 100 µM (inactive)"}, {"measurement": "GI50", "setting": "Malme-3M", "result": "94.6 µM (inactive)"}, {"measurement": "GI50", "setting": "OVCAR-4", "result": "> 100 µM (inactive)"}, {"measurement": "GI50", "setting": "OVCAR-8", "result": "> 100 µM (inactive)"}, {"measurement": "GI50", "setting": "SN12C", "result": "> 100 µM (inactive)"}, {"measurement": "GI50", "setting": "SNB-19", "result": "> 100 µM (inactive)"}, {"measurement": "GI50", "setting": "U-251", "result": "> 100 µM (inactive)"}]}, {"smiles": "O=c1c(O)c(-c2ccc(O)cc2O)oc2cc(O)cc(O)c12", "note": "[MORIN]", "values": [{"measurement": "GI50", "setting": "786-0", "result": "> 100 µM (inactive)"}, {"measurement": "GI50", "setting": "ACHN", "result": "> 100 µM (inactive)"}, {"measurement": "GI50", "setting": "CCRF-CEM", "result": "> 100 µM (inactive)"}, {"measurement": "GI50", "setting": "COLO 205", "result": "> 100 µM (inactive)"}, {"measurement": "GI50", "setting": "DU-145", "result": "> 100 µM (inactive)"}, {"measurement": "GI50", "setting": "HCT-15", "result": "> 100", "unit": "µM"}, {"measurement": "GI50", "setting": "LOX IMVI", "result": "> 100 µM (inactive)"}, {"measurement": "GI50", "setting": "M14", "result": "> 100 µM (inactive)"}, {"measurement": "GI50", "setting": "MDA-MB-231", "result": "> 100 µM (inactive)"}, {"measurement": "GI50", "setting": "MDA-MB-435", "result": "> 100 µM (inactive)"}, {"measurement": "GI50", "setting": "MDA-N", "result": "> 100 µM (inactive)"}, {"measurement": "GI50", "setting": "Malme-3M", "result": "> 100 µM (inactive)"}, {"measurement": "GI50", "setting": "OVCAR-4", "result": "> 100 µM (inactive)"}, {"measurement": "GI50", "setting": "OVCAR-8", "result": "> 100 µM (inactive)"}, {"measurement": "GI50", "setting": "SN12C", "result": "> 100 µM (inactive)"}, {"measurement": "GI50", "setting": "SNB-19", "result": "> 100 µM (inactive)"}, {"measurement": "GI50", "setting": "U-251", "result": "> 100 µM (inactive)"}]}]}
